Molecular target: T1, IRAK4 (Homo sapiens, UniProt Q9NWZ3)
T1 construct: endogenous in cells; host or cells: THP-1 cells
T1 sequence (Q9NWZ3 1-460): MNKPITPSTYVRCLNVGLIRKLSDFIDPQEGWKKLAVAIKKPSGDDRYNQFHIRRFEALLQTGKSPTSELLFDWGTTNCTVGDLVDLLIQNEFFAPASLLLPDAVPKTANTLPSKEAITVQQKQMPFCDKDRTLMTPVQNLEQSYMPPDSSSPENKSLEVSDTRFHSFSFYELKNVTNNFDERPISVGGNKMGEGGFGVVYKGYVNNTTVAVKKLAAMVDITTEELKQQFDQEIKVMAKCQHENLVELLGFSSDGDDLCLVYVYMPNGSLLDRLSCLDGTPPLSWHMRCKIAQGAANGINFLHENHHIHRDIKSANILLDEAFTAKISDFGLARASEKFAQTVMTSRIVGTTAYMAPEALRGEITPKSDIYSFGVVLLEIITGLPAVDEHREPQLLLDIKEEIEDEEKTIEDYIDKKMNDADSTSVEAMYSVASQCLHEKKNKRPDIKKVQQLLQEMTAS
Assay: LVL THP1 HTRF (THP1 Homogeneous Time Resolved Fluorescence)
Type: cell-based
Conditions: THP1 cells, 18 h incubation with compound; for DC50: read-out: LVL THP1 HTRF EC50
In short: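 IRAK4 HTRF read-out (665/615 nm ratio, anti-IRAK4 d2 acceptor and K donor, 18 h dark incubation at room temperature) on lysates of THP-1 cells. Cells were treated 18 h at 37° C. with 20 nL compound in DMSO, in colorless RPMI with 10% FBS, with a duplicate CTG plate.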

Row | SMILES | LVL THP1 HTRF YMIN | DC50
1 | C[C@H](C#N)Nc1cc(-n2ncc3cc(C#N)c(N)nc32)ncc1-n1cc(C2CCC(CCN3CCN(c4ccc(C5CCC(=O)NC5=O)cc4)[C@H](C)C3)CC2)nn1 (stereo partly drawn) [P-216] | 1. % | 1 nM
2 | CS(=O)(=O)N1CCC(Nc2cc(-n3ncc4cc(C#N)c(N)nc43)ncc2-n2cc(C3CCC(CCN4CCN(c5ccc(C6CCC(=O)NC6=O)cc5)CC4)CC3)nn2)CC1 (stereo not drawn) [P-217] | 1.6% | –
3 | CS(=O)(=O)N1CCC(Nc2cc(-n3ncc4cc(C#N)c(N)nc43)ncc2-n2cc([C@H]3CC[C@H](CCN4CCN(c5ccc(C6CCC(=O)NC6=O)cc5)CC4)CC3)nn2)CC1 (stereo partly drawn) [P-217] | – | 9 nM
4 | C[C@H](C#N)Nc1cc(-n2ncc3cncnc32)ncc1-n1cc(C2CCC(CCN3CCN(c4ccc(C5CCC(=O)NC5=O)cc4)CC3)CC2)nn1 (stereo partly drawn) [P-218] | 4.3% | –
5 | C[C@H](C#N)Nc1cc(-n2ncc3cncnc32)ncc1-n1cc([C@H]2CC[C@H](CCN3CCN(c4ccc(C5CCC(=O)NC5=O)cc4)CC3)CC2)nn1 (stereo partly drawn) [P-218] | – | 6 nM
6 | C[C@H](C#N)Nc1cc(-n2ncc3cc(C#N)c(N)nc32)ncc1-n1cc(C2CCC(CCN3CCN(c4ccc(C5CCC(=O)NC5=O)cc4)[C@@H](C)C3)CC2)nn1 (stereo partly drawn) [P-219] | 1.8% | 6 nM
7 | C[C@H](C#N)Nc1cc(-n2ncc3cc(C#N)c(N)nc32)ncc1-n1cc(C2CCC(CCN3[C@H](C)CN(c4ccc(C5CCC(=O)NC5=O)cc4)C[C@H]3C)CC2)nn1 (stereo partly drawn) [P-220] | 4.3% | 6 nM
8 | C[C@H](C#N)Nc1cc(-n2ncc3cc(C#N)cnc32)ncc1-n1cc(C2CCC(CCN3[C@H](C)CN(c4ccc(C5CCC(=O)NC5=O)cc4)C[C@H]3C)CC2)nn1 (stereo partly drawn) [P-221] | 1.4% | 5 nM
9 | C[C@H](C#N)Nc1cc(-n2ncc3cc(C#N)c(N)nc32)ncc1-n1cc(C2CCC(CCN3CCN(c4ccc([C@@]5(C)CCC(=O)NC5=O)cc4)CC3)CC2)nn1 (stereo partly drawn) [P-222] | 2.1% | –
10 | C[C@H](C#N)Nc1cc(-n2ncc3cc(C#N)c(N)nc32)ncc1-n1cc([C@H]2CC[C@H](CCN3CCN(c4ccc([C@@]5(C)CCC(=O)NC5=O)cc4)CC3)CC2)nn1 [P-222] | – | 7 nM
11 | C[C@H](C#N)Nc1cc(-n2ncc3cc(C#N)c(N)nc32)ncc1-n1cc(C2CCC(CCN3[C@@H](C)CN(c4ccc(C5CCC(=O)NC5=O)cc4)C[C@@H]3C)CC2)nn1 (stereo partly drawn) [P-223] | 2.1% | < 1 nM
12 | C[C@H](C#N)Nc1cc(-n2ncc3cc(C#N)cnc32)ncc1-c1ncn(C2CCC(CCN3CCN(c4ccc(C5CCC(=O)NC5=O)cc4)CC3)CC2)n1 (stereo partly drawn) [P-224] | 15.9% | –
13 | C[C@H](C#N)Nc1cc(-n2ncc3cc(C#N)cnc32)ncc1-c1ncn([C@H]2CC[C@H](CCN3CCN(c4ccc(C5CCC(=O)NC5=O)cc4)CC3)CC2)n1 (stereo partly drawn) [P-224] | – | 60 nM
14 | C[C@H](C#N)Nc1cc(-n2ncc3cncnc32)ncc1-n1cc(C2CCC(CCN3CCN(c4ccc([C@@]5(C)CCC(=O)NC5=O)cc4)CC3)CC2)nn1 (stereo partly drawn) [P-225] | 3.5% | –
15 | C[C@H](C#N)Nc1cc(-n2ncc3cncnc32)ncc1-n1cc([C@H]2CC[C@H](CCN3CCN(c4ccc([C@@]5(C)CCC(=O)NC5=O)cc4)CC3)CC2)nn1 [P-225] | – | 133 nM
16 | C[C@H](C#N)Nc1cc(-n2ncc3cc(C#N)cnc32)ncc1-n1cc([C@H]2CC[C@](O)(CCN3CCN(c4ccc(C5CCC(=O)NC5=O)cc4)CC3)CC2)nn1 (stereo partly drawn) [P-226, 1-(4-(((R)-1-cyanoethyl)amino)-5-(4-(4-(2-(4-(4-(2,6-dioxopiperidin-3-yl)phenyl)piperazin-1-yl)ethyl)-4-hydroxycyclohexyl)-1H-1,2,3-triazol-1-yl)pyridin-2-yl)-1H-pyrazolo[3,4-b]pyridine-5-carbonitrile] | 2.1% | 5 nM
17 | C[C@H](C#N)Nc1cc(-n2ncc3cc(C#N)cnc32)ncc1-n1cc(C2CCC(O)(CCN3CCN(c4ccc(C5CCC(=O)NC5=O)cc4)CC3)CC2)nn1 (stereo partly drawn) [P-227] | 3.0% | 2 nM
18 | C[C@H](C#N)Nc1cc(-n2ncc3cnc(N)nc32)ncc1-n1cc(C2CCC(CCN3CCN(c4ccc([C@@]5(C)CCC(=O)NC5=O)cc4)CC3)CC2)nn1 (stereo partly drawn) [P-228] | 3.6% | –
19 | C[C@H](C#N)Nc1cc(-n2ncc3cnc(N)nc32)ncc1-n1cc([C@H]2CC[C@H](CCN3CCN(c4ccc([C@@]5(C)CCC(=O)NC5=O)cc4)CC3)CC2)nn1 [P-228] | – | 9 nM
20 | C[C@H](C#N)Nc1cc(-c2ccc3cc(C#N)cnn23)ncc1-n1cc(C2CCC(CCN3CCN(c4ccc([C@@]5(C)CCC(=O)NC5=O)cc4)CC3)CC2)nn1 (stereo partly drawn) [P-230] | 2.8% | –

Row | SMILES | LVL THP1 HTRF YMIN | DC50
21 | C[C@H](C#N)Nc1cc(-c2ccc3cc(C#N)cnn23)ncc1-n1cc([C@H]2CC[C@H](CCN3CCN(c4ccc([C@@]5(C)CCC(=O)NC5=O)cc4)CC3)CC2)nn1 [P-230] | – | 7 nM
22 | C[C@H](C#N)Nc1cc(-n2ncc3cnc(N)nc32)ncc1-n1cc(C2CCC(CCN3CCN(c4ccc(C5CCC(=O)NC5=O)cc4)CC3)CC2)nn1 (stereo partly drawn) [P-231] | 1.37% | –
23 | C[C@H](C#N)Nc1cc(-n2ncc3cnc(N)nc32)ncc1-n1cc([C@H]2CC[C@H](CCN3CCN(c4ccc(C5CCC(=O)NC5=O)cc4)CC3)CC2)nn1 (stereo partly drawn) [P-231] | – | 1 nM
24 | C[C@H]1CN(c2ccc([C@@]3(C)CCC(=O)NC3=O)cc2)C[C@H](C)N1CCC1CCC(c2cn(-c3cnc(-n4ncc5cc(C#N)cnc54)cc3NC3(C#N)CC3)nn2)CC1 (stereo partly drawn) [P-232] | 7.1% | 65 nM
25 | C[C@H](C#N)Nc1cc(-n2ncc3cc(C#N)cnc32)ncc1-n1cc(C2CCC(CCN3CCC(c4ccc([C@@]5(C)CCC(=O)NC5=O)cc4)CC3)CC2)nn1 (stereo partly drawn) [P-233] | 2.8% | –
26 | C[C@H](C#N)Nc1cc(-n2ncc3cc(C#N)cnc32)ncc1-n1cc([C@H]2CC[C@H](CCN3CCC(c4ccc([C@@]5(C)CCC(=O)NC5=O)cc4)CC3)CC2)nn1 [P-233] | – | 8 nM
27 | C[C@]1(c2ccc(N3CCN(CCC4CCC(c5cn(-c6cnc(-n7ncc8cc(C#N)cnc87)cc6NC6(C#N)CC6)nn5)CC4)CC3)cc2)CCC(=O)NC1=O (stereo partly drawn) [P-234] | 3.1% | –
28 | C[C@]1(c2ccc(N3CCN(CC[C@H]4CC[C@H](c5cn(-c6cnc(-n7ncc8cc(C#N)cnc87)cc6NC6(C#N)CC6)nn5)CC4)CC3)cc2)CCC(=O)NC1=O [P-234] | – | 13 nM
29 | C[C@H](C#N)Nc1cc(-n2ncc3cc(C#N)cnc32)ncc1-n1cc(C2CCC(CCN3C[C@@H](C)N(c4ccc([C@@]5(C)CCC(=O)NC5=O)cc4)C[C@@H]3C)CC2)nn1 (stereo partly drawn) [P-236] | 23.3% | 269 nM
30 | C[C@H](C#N)Nc1cc(-n2ncc3cc(C#N)cnc32)ncc1-n1cc(C2CCC(CCN3[C@@H](C)CN(c4ccc([C@@]5(C)CCC(=O)NC5=O)cc4)C[C@@H]3C)CC2)nn1 (stereo partly drawn) [P-238] | 1.1% | 25 nM
31 | C[C@H](C#N)Nc1cc(-n2ncc3cc(C#N)cnc32)ncc1-n1cc(C2CCC(CCN3CCN(c4ccc([C@@]5(C)CCC(=O)NC5=O)cc4)[C@H](C)C3)CC2)nn1 (stereo partly drawn) [P-239] | 8.6% | 165 nM
32 | C[C@@H]1CN(CCC2CCC(c3cn(-c4cnc(-n5ncc6cc(C#N)cnc65)cc4NC4(C#N)CC4)nn3)CC2)[C@@H](C)CN1c1ccc([C@@]2(C)CCC(=O)NC2=O)cc1 (stereo partly drawn) [P-240] | 14.5% | 297 nM
33 | C[C@H](C#N)Nc1cc(-n2ncc3cc(C#N)cnc32)ncc1-n1cc(C2CCC(CCN3CCN(c4ccc([C@@]5(C)CCC(=O)NC5=O)cc4)[C@@H](C)C3)CC2)nn1 (stereo partly drawn) [P-241] | 3.5% | 39 nM
34 | C[C@H](C#N)Nc1cc(-n2ncc3cc(C#N)c(N)nc32)ncc1-n1cc(C2CCC(CCN3[C@H](C)CN(c4ccc([C@@]5(C)CCC(=O)NC5=O)cc4)C[C@H]3C)CC2)nn1 (stereo partly drawn) [P-242] | 2.5% | 23 nM
35 | C[C@H](C#N)Nc1cc(-n2ncc3cc(C#N)cnc32)ncc1-n1cc(C2CCC(CCN3[C@H](C)CN(c4ccc([C@@]5(C)CCC(=O)NC5=O)cc4)C[C@H]3C)CC2)nn1 (stereo partly drawn) [P-243] | 3.9% | 159 nM
36 | C[C@H](C#N)Nc1cc(-n2ncc3cc(C#N)cnc32)ncc1-n1cc(C2CCC(CCN3C[C@H](C)N(c4ccc([C@@]5(C)CCC(=O)NC5=O)cc4)C[C@H]3C)CC2)nn1 (stereo partly drawn) [P-244] | 3.5% | 56 nM
37 | C[C@H](C#N)Nc1cc(-n2ncc3cc(C#N)c(N)nc32)ncc1-n1cc(C2CCC(CCN3CCN(c4ccc([C@@]5(C)CCC(=O)NC5=O)cc4)[C@@H](C)C3)CC2)nn1 (stereo partly drawn) [P-245] | 2.6% | 12 nM
38 | C[C@]1(c2ccc(N3CCN(CC[C@H]4CC[C@H](c5cn(-c6cnc(-n7ncc8cc(C#N)c(N)nc87)cc6NC6(C#N)CC6)nn5)CC4)CC3)cc2)CCC(=O)NC1=O [P-246] | 4.1% | 6.8 nM
39 | C[C@H](C#N)Nc1cc(-n2ncc3ccc(N4C[C@H]5C[C@@H]4CO5)nc32)ncc1-n1cc([C@H]2CC[C@H](CCN3CCN(c4ccc([C@@]5(C)CCC(=O)NC5=O)cc4)CC3)CC2)nn1 [P-247] | 13.4% | 191 nM
40 | C[C@H](C#N)Nc1cc(-n2ncc3cc(C#N)c(N)nc32)ncc1C(=O)N[C@H]1CC[C@H](CCN2CCN(c3ccc([C@@]4(C)CCC(=O)NC4=O)cc3)[C@@H](C)C2)CC1 [P-248] | 4.1% | 4 nM

Reference: patent US20240109881A1, “Heteroaryl Compounds as Ligand Directed Degraders of IRAK4” (Bristol-Myers Squibb Company, priority 2022, published 2024)
